{"source": "patent US10793527B2", "about": "“Adenosine monophosphate-activated protein kinase agonist” (NATIONAL YANG-MING UNIVERSITY, priority 2016, dated 2020)", "key": {"[1]": {"molecular_target": "T1, AMPKα1 immunoprecipitated protein extract (Homo sapiens, UniProt Q13131)", "T1 construct": "AMPKα1 immunoprecipitated protein extract; endogenous in cells; host or cells: PLC5 liver cancer cells (immunoprecipitate on Protein A/G magnetic beads)", "T1 sequence (Q13131 whole entry)": "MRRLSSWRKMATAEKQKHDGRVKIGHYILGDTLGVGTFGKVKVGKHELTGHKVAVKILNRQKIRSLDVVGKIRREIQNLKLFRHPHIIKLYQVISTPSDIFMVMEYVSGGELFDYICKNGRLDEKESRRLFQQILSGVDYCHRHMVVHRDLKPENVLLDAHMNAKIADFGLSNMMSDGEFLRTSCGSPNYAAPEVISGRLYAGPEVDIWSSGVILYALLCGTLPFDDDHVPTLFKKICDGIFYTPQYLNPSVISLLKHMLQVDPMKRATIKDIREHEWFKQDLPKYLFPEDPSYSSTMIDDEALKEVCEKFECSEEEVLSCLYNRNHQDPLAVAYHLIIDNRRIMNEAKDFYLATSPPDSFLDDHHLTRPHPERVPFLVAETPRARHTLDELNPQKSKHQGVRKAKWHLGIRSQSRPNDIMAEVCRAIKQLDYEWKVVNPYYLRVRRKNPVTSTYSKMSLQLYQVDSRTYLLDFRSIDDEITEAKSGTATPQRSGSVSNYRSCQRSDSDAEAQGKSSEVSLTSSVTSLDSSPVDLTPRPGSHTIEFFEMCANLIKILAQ", "T1 sequence (Q9Y478 2-270 partner limits assumed)": "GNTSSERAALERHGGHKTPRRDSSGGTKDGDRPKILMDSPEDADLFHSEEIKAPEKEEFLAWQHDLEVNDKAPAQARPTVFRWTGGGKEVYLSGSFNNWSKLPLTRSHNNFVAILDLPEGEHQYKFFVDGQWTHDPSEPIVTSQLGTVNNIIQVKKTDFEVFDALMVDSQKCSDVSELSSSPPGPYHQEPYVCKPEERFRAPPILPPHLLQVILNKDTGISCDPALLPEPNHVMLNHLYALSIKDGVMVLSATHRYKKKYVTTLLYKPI", "T1 sequence (P54619 whole entry partner)": "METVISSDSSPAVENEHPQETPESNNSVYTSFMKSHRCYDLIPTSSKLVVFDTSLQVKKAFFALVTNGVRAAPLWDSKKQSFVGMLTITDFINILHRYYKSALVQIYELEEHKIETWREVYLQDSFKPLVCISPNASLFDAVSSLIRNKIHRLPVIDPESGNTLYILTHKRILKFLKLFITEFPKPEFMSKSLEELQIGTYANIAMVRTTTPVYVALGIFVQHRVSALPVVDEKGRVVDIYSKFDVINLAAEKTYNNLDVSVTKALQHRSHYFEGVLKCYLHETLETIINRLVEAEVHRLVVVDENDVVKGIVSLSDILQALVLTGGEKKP", "experiment": "AMPK enzyme activity assay (SAMS peptide), AMPKα1 immunoprecipitated from PLC5 protein extract", "format": "biochemical", "conditions": "20-20,000 nM compound; compared to the group without compound addition (FIG. 1A)", "description": "(§1) The protein extract of liver cancer cell PLC5 and the anti-AMPKα1 antibody were incubated in an immunoprecipitation buffer (G-Biosciences) overnight. Protein A/G Magnetic Beads (PureProteome™) are added to each sample respectively and incubated at 4° C. for 4 hours. In the case of the recombinant protein AMPK, 12.5 ng of the recombinant protein human AMPK (α1, β1, γ1) is incubated with various doses of the compound, and then AMPK activities are detected based on the manual of the SAMS peptide assay (Cyclex).\n(§2) It is shown by FIGS. 1A and 1B that the SCT-1015 compound can increase the activity of AMPK in liver cancer cells."}, "[2]": {"molecular_target": "recombinant protein human AMPK (α1, β1, γ1) (Homo sapiens, UniProt Q13131)", "sequence (Q13131 whole entry)": "as the sequence (Q13131 whole entry) above", "sequence (Q9Y478 whole entry partner)": "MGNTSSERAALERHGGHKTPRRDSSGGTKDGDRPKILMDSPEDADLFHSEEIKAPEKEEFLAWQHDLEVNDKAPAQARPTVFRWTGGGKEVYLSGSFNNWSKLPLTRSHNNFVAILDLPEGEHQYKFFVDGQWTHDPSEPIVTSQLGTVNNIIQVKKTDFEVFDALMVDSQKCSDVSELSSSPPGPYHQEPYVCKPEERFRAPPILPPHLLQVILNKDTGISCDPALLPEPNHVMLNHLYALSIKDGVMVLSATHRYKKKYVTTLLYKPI", "sequence (P54619 whole entry partner)": "as the sequence (P54619 whole entry partner) above", "experiment": "AMPK enzyme activity assay (SAMS peptide), recombinant protein", "format": "biochemical", "conditions": "20-2,000 nM compound; compared with the group without compound addition (FIG. 1B)", "description": "as §1, §2"}, "[3]": {"system": "AMPK T172", "experiment": "Detection of AMPK phosphorylation by ELISA assay in PLC5 cells", "format": "cell-based", "conditions": "PLC5 cultured with 10 μM compound for 24 hours, compared to control group", "description": "In this analysis, the commercial kit AMPK […] Phospho-ELISA Kit (KHO0651) produced by ThermoFisher Science is utilized. The hepatoma cell PLC5 is cultured with 10 μM of the compound for 24 hours, and the analysis is performed according to the manual, and the absorbance was detected at a wavelength of 450 nm."}, "[4]": {"system": "PLC/PRF/5 (PLC5) cells", "experiment": "Cell viability of liver cancer cells (Prestoblue), PLC5", "format": "cell-based", "description": "(§3) Hepatoma cell Huh-7 was obtained from Health Science Research Resources Bank (HSRRB, Osaka. Japan; JCRB0403); Hepatoma cell PLC/PRF/5 (PLC5), Sk-Hep-1 and HCC1806 were obtained from the American Type Culture Collection (ATCC, Manassas, Va.). All cell lines are cultured immediately and frozen, so the frozen cells can be thawed every 3 months to allow experiments are conducted with the same batch of cells.\n(§4) Analysis is performed using a commercial kit Prestoblue assay produced by Thermo Fisher Scientific. Three liver cancer cell lines PLC/PRF/5, SK-hep1, and Huh-7 are cultured with compound SCT-1015 for 48 hours and 72 hours, respectively. […] The results support that the compound of the present invention can activate AMPK to inhibit the proliferation of liver cancer cells."}, "[5]": {"system": "phosphorylated AMPKα (p-AMPKα)", "experiment": "Detection of AMPK phosphorylation by immuno-blot assay", "format": "cell-based", "conditions": "PLC5, MDA-MB-231 and MDA-MB-453 cells; compared with the non-treated group (FIGS. 2A-2C)", "description": "(§5) The liver cancer cell PCL5 and the triple negative breast cancer cell (TNBC) MBA-MB-231 and MDA-MB-453 are cultured with the compound SCT-1015, respectively. The cells are collected, wash, and lysed by RIPA buffer to obtain a protein extract. The protein concentration was measured by Bio-Rad Protein Assay dye reagent (Bio-Rad). The protein samples are diluted with 2 times SDS-loading buffer (100 mM Tris HCl, pH 6.8, 200 mM β-mercaptoethanol, 4% SDS, 0.02% bromophenol blue, and 20% glycerol) to adjust volume, and electrophoresis is carried out using 10% SDS polyacrylamide gels and followed by transferring to PVDF membrane. The primary antibody is added to detect the target protein on the membrane, and then the secondary antibody with horseradish peroxidase is added, followed by addition of substrate (enhanced SuperSignal West Pico Cheminluminescent Substrate, Pierce) to obtain the signal of the specific protein. and the protein content is determined by β-actin. The β-actin is used as an internal control for protein amount."}, "[6]": {"system": "HIF1 and PDHK1", "experiment": "Immuno-blot of downstream signaling molecules in liver cancer cell lines", "format": "cell-based", "conditions": "PLC/PRF/5, SK-hep1 and Huh-7 (FIG. 2D)", "description": "as §5"}, "[7]": {"system": "SK-hep1 cells", "experiment": "Cell viability of liver cancer cells (Prestoblue), SK-hep1", "format": "cell-based", "conditions": "5-20 μM, 48 hours and 72 hours, compared with control (DMSO) (FIG. 3)", "description": "as §3, §4"}, "[8]": {"system": "Huh-7 cells", "experiment": "Cell viability of liver cancer cells (Prestoblue), Huh-7", "format": "cell-based", "conditions": "5-20 μM, 48 hours and 72 hours, compared with control (DMSO) (FIG. 3)", "description": "as §3, §4"}, "[9]": {"system": "HCC1806/luc2 cells", "experiment": "In situ triple negative breast cancer mouse model (HCC1806/luc2-bearing orthotopic mice), IVIS", "format": "in vivo", "conditions": "20 mg/kg, fed daily for 14 days (FIG. 4)", "description": "An in situ triple negative breast cancer mouse model (HCC1806/luc2-bearing orthotopic mice) is established with HCC1806 cells carrying the luciferase (luc2) gene. The experimental mice are divided into two groups, namely (1) control group: solvent; (2) experimental group: compound SCT-1015 (20 mg/kg), and the mice are fed daily for 14 days. On day 0 and day 14, the substrate of luciferase is injected into the peritoneal cavity of mice, and the luminescence from HCC1806/luc2 cells is detected by in vivo imaging system (IVIS) to monitor cell growth.\nThe results support that the compound of the present invention can activate AMPK to inhibit the growth of triple-negative breast cancer cells."}, "[10]": {"system": "mature adipocytes", "experiment": "Cell growth of adipocytes (adipoRed staining, cell imaging)", "format": "cell-based, human", "description": "(§6) According to the standard procedure of adipocyte differentiation, human pre-adipocytes are treated with adipogenesis reagent (Gibco StemPro) for 14 days to induce differentiation into mature adipocytes. Next, mature adipocytes are treated with different concentrations of compound SCT-1015 (100 μM, 25 μM, 12.5 μM, 5 μM, and 2.5 μM), solvent only (Mock), or non-treated and cultivated for 48 hours. Then, the adipocytes are stained with adipoRed (Lonza inc.), and the cell number is evaluated by fluorescence signals measured at excited and emission wavelength are 485 nm and 572 nm, respectively. In addition, after the cells were treated with 2.5 μM. of the compound SCT-1015, the cell morphology was also observed through cell imaging."}, "[11]": {"system": "undifferentiated cells", "experiment": "Morphology of undifferentiated cells in the adipocyte culture", "format": "cell-based", "conditions": "2.5 μM (FIG. 5B)", "description": "as §6"}, "[12]": {"experiment": "Treatment of diet-induced obesity (DIO) mice, body weight", "format": "in vivo", "conditions": "compared to the control group of mice (FIG. 6)", "text": "The male mice C57BL/6 were purchased from the National Laboratory Animal Center (NLAC, Taipei, Taiwan) and fed high-fat-die for 4 weeks to establish the diet-induced obesity (DIO) mouse model for subsequent experiments"}}}
{"smiles": "O=C(Nc1cccc(Nc2nccc(-c3ccc[nH]3)n2)c1)Nc1ccc(Cl)c(C(F)(F)F)c1", "note": "[SCT-1015, 1-(3-((4-(1H-pyrrol-2-yl)pyrimidin-2-yl)amino)phenyl)-3-(4-chloro-3-(trifluoromethyl)phenyl)urea]", "values": [{"measurement": "AMPK activity", "setting": "[1]", "value": "significant increase"}, {"measurement": "activity of the recombinant protein AMPKα1/β1/γ1", "setting": "[2]", "value": "significant increase"}, {"measurement": "AMPK T172 activity", "setting": "[3]", "value": 1.8, "unit": "fold"}, {"measurement": "IC50", "setting": "[4]; PLC5 cells, 48 hr", "value": 12.1, "unit": "µM"}, {"measurement": "cell proliferation", "setting": "[4]; PLC/PRF/5, 5-20 μM, 48 hours and 72 hours, compared with control (DMSO) (FIG. 3)", "value": "inhibit the cell proliferation significantly"}, {"measurement": "expression of phosphorylated AMPKα (p-AMPKα)", "setting": "[5]", "value": "significantly increased"}, {"measurement": "regulation of downstream signaling molecules HIF1 and PDHK1", "setting": "[6]", "value": "regulates the downstream signaling molecules HIF1 and PDHK1"}, {"measurement": "cell proliferation", "setting": "[7]", "value": "inhibit the cell proliferation significantly"}, {"measurement": "cell proliferation", "setting": "[8]", "value": "inhibit the cell proliferation significantly"}, {"measurement": "number of HCC1806/luc2 cell on day 14 compared to control group", "setting": "[9]", "value": "significantly less"}, {"measurement": "number of HCC1806/luc2 cell on day 14 compared to day 0", "setting": "[9]", "value": "does not show noteworthy increase"}, {"measurement": "cell morphology of mature adipocytes", "setting": "[10]; 2.5 μM (FIG. 5B)", "value": "shrinkage and death"}, {"measurement": "number of the mature adipocytes", "setting": "[10]; 2.5-100 μM, 48 hours, compared to control (Mock), dose-dependent (FIG. 5A)", "value": "significantly decreased"}, {"measurement": "cell morphology of undifferentiated cells", "setting": "[11]", "value": "maintain a healthy cell morphology"}, {"measurement": "body weight lost", "setting": "[12]", "value": 5, "unit": "%"}]}
